Measurements published in ChEMBL document CHEMBL3734692, “Design and synthesis of 2-oxindole based multi-targeted inhibitors of PDK1/Akt signaling pathway for the treatment of glioblastoma multiforme” (Eur J Med Chem, 2015).
Activity calls are given as the source filed them. The calls are words filed in the database; no cut-off is given here.

Tests used:
[1] = target: CDK9/cyclin T1 (Homo sapiens) (UniProt O60563+P50750); test: Inhibition of CDK9/cyclin T1 (unknown origin) at 1 uM by selectscreen kinase profiling assay in presence of ATP; assay type: protein-complex assay
[2] = target: Dual specificity protein kinase CLK1 (Homo sapiens) (UniProt P49759); test: Inhibition of CLK1 (unknown origin) at 1 uM by selectscreen kinase profiling assay in presence of ATP
Chain of Dual specificity protein kinase CLK1 (Homo sapiens) (P49759 whole entry, looked up): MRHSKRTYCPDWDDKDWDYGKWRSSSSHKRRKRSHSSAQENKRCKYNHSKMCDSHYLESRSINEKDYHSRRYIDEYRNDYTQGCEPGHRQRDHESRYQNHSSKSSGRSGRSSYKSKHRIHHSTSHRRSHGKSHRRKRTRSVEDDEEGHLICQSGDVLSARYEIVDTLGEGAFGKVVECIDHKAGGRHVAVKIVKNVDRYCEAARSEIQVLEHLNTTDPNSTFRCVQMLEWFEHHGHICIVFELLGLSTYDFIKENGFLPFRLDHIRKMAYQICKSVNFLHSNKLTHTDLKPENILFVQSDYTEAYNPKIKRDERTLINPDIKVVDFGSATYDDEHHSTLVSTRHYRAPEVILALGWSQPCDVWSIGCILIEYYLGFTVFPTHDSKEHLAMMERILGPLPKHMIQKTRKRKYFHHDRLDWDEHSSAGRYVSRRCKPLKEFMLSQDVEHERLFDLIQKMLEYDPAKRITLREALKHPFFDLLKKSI

[3] = target: Aurora kinase A (Homo sapiens) (UniProt O14965); test: Inhibition of AURKA (unknown origin) at 1 uM by selectscreen kinase profiling assay in presence of ATP
Chain of Aurora kinase A (Homo sapiens) (O14965 whole entry): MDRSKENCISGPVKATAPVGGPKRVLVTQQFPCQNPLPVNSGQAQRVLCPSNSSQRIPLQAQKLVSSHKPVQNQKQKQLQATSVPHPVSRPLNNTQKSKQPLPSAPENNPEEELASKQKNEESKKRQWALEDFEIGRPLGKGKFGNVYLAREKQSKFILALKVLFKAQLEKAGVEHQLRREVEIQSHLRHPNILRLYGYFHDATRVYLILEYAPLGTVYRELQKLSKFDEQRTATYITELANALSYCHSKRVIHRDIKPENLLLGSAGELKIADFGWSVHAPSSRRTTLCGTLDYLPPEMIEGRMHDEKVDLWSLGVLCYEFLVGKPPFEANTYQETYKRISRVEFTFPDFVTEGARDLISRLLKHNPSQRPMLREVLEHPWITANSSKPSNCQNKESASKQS

[4] = target: Casein kinase II subunit alpha' (Homo sapiens) (UniProt P19784); test: Inhibition of CK2alpha2 (unknown origin) at 1 uM by selectscreen kinase profiling assay in presence of ATP
Chain of Casein kinase II subunit alpha' (Homo sapiens) (P19784 whole entry, looked up): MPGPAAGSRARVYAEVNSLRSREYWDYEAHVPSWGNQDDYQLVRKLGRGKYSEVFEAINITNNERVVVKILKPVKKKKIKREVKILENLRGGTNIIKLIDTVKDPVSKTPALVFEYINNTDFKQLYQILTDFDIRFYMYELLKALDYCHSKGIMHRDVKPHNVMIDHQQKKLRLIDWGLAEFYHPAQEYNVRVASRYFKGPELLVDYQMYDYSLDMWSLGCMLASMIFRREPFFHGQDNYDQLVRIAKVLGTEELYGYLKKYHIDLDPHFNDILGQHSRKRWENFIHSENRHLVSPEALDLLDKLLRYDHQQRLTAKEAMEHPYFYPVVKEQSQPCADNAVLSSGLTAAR

[5] = target: T1, Glycogen synthase kinase-3 beta (Homo sapiens, UniProt P49841); test: Inhibition of GSK3beta (unknown origin) in presence of 10 uM ATP incubated for 1 hr by Z'Lyte assay
Target sequence in this assay (P49841 whole entry): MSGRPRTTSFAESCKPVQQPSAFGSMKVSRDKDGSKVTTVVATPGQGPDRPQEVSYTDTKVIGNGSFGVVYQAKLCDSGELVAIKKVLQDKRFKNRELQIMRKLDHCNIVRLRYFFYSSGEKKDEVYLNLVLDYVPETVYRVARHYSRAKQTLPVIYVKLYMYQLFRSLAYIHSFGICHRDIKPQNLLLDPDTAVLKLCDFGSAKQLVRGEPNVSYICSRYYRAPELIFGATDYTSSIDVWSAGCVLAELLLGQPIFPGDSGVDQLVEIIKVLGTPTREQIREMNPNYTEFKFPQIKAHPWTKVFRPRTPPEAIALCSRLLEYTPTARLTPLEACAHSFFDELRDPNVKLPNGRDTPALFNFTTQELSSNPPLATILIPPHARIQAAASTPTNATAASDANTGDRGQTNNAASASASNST

[6] = target: T1, Glycogen synthase kinase-3 beta; test: Inhibition of GSK3beta (unknown origin) at 1 uM by selectscreen kinase profiling assay in presence of ATP
Target sequence in this assay (P49841 whole entry, looked up): as the sequence (P49841 whole entry) above

[7] = target: Mitogen-activated protein kinase 14 (Homo sapiens) (UniProt Q16539); test: Inhibition of p38 alpha (unknown origin) at 1 uM by selectscreen kinase profiling assay in presence of ATP
Chain of Mitogen-activated protein kinase 14 (Homo sapiens) (Q16539 whole entry): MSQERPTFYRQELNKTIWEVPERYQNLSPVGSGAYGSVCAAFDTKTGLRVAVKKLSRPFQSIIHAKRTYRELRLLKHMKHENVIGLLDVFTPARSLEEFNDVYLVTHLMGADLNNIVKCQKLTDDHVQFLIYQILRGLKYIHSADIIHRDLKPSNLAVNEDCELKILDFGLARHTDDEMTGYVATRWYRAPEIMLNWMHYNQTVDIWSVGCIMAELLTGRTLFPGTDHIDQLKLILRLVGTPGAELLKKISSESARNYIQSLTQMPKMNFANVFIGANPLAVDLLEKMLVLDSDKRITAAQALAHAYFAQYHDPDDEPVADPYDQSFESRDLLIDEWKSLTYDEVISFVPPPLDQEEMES

[8] = Cell cycle arrest in human GSC derived from ANGM-CSS cells assessed as accumulation at S phase at 1 uM after 7 days by based fluorescent reagent based cell analysis (reference value: 1.9%); assay type: functional
[9] = target: Proto-oncogene tyrosine-protein kinase Src (Homo sapiens) (UniProt P12931); test: Inhibition of SRC (unknown origin) at 1 uM by selectscreen kinase profiling assay in presence of ATP
[10] = tested on: ANGM-CSS; test: Antiproliferative activity against human GSC derived from ANGM-CSS cells by MTS assay; assay type: functional, cell-based; conditions: TDE = time-dependent effect
[11] = target: CDK7/Cyclin H/MNAT1 (Homo sapiens) (UniProt P51946+P50613+P51948); test: Inhibition of CDK7/cyclin H/MNAT1 (unknown origin) at 1 uM by selectscreen kinase profiling assay in presence of ATP; assay type: protein-complex assay
[12] = target: Mitogen-activated protein kinase 3 (Homo sapiens) (UniProt P27361); test: Inhibition of ERK1 (unknown origin) at 1 uM by selectscreen kinase profiling assay in presence of ATP
Chain of Mitogen-activated protein kinase 3 (Homo sapiens) (P27361 whole entry): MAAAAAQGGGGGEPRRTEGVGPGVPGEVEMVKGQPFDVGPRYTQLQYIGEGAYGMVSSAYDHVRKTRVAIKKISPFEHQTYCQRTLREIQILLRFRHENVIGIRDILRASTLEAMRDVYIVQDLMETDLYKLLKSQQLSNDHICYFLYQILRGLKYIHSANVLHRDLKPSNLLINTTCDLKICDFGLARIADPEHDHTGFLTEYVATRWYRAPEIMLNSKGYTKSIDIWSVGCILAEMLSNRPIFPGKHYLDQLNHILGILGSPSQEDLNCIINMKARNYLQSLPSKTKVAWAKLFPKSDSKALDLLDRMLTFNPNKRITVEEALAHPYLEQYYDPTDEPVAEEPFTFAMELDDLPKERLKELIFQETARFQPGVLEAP

[13] = Induction of apoptosis in human GSC derived from ANGM-CSS cells assessed as live cells at 1 uM after 7 days by annexin V-FITC/7-AAD dual staining based cell analysis (reference value: 91.88%); assay type: functional
[14] = target: Mitogen-activated protein kinase 9 (Homo sapiens) (UniProt P45984); test: Inhibition of JNK2 (unknown origin) at 1 uM by selectscreen kinase profiling assay in presence of ATP
[15] = target: Glycogen synthase kinase-3 alpha (Homo sapiens, UniProt P49840); test: Inhibition of GSK3alpha (unknown origin) at 1 uM by selectscreen kinase profiling assay in presence of ATP
Chain of Glycogen synthase kinase-3 alpha (P49840 2-483 limits assumed): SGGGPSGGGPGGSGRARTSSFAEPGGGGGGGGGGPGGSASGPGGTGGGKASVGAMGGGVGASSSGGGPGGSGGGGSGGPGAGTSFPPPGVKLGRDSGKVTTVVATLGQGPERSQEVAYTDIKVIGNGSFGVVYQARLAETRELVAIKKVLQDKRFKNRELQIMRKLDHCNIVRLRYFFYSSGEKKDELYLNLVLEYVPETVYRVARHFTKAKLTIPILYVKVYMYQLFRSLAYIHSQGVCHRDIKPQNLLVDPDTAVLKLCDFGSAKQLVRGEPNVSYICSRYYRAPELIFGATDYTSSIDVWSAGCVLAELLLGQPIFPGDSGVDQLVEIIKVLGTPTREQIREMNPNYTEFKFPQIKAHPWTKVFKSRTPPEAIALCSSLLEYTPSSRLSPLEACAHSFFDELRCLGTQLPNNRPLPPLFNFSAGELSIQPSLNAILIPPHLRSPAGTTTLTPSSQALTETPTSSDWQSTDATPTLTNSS

[16] = tested on: U-118-MG; test: Antiproliferative activity against human U118MG cells assessed as inhibition of cell growth after 72 to 144 hrs by WST1 assay; assay type: functional, cell-based
[17] = tested on: ANGM-CSS; test: Reduction of neurosphere formation in human GSC derived from ANGM-CSS cells assessed as decrease in number and diameter of newly generated neurospheres at 1 uM after 9 days by microscopic analysis; assay type: functional, cell-based
[18] = target: Serine/threonine-protein kinase Chk1 (Homo sapiens, UniProt O14757); test: Inhibition of CHK1 (unknown origin) in presence of 10 uM ATP incubated for 1 hr by Z'Lyte assay
Chain of Serine/threonine-protein kinase Chk1 (O14757 whole entry): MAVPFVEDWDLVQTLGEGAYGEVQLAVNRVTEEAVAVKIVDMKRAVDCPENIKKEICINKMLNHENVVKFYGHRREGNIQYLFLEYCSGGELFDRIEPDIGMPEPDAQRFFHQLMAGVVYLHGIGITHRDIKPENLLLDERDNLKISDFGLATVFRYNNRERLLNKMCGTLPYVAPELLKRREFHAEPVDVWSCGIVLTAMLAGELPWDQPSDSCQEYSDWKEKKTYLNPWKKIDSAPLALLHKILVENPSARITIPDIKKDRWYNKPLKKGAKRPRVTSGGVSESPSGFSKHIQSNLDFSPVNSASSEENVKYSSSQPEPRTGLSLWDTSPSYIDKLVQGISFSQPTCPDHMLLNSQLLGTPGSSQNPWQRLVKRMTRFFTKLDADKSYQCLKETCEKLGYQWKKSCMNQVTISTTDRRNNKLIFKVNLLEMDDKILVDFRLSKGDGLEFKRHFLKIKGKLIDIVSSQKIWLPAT

[19] = tested on: ANGM-CSS; test: Effect on human GSC morphology derived from ANGM-CSS cells assessed as outgrowth of cellular processes at 1 uM after 7 days by microscopic analysis; assay type: functional, cell-based
[20] = target: Serine/threonine-protein kinase PAK 6 (Homo sapiens) (UniProt Q9NQU5); test: Inhibition of PAK6 (unknown origin) at 1 uM by selectscreen kinase profiling assay in presence of ATP
Chain of Serine/threonine-protein kinase PAK 6 (Homo sapiens) (Q9NQU5 whole entry, looked up): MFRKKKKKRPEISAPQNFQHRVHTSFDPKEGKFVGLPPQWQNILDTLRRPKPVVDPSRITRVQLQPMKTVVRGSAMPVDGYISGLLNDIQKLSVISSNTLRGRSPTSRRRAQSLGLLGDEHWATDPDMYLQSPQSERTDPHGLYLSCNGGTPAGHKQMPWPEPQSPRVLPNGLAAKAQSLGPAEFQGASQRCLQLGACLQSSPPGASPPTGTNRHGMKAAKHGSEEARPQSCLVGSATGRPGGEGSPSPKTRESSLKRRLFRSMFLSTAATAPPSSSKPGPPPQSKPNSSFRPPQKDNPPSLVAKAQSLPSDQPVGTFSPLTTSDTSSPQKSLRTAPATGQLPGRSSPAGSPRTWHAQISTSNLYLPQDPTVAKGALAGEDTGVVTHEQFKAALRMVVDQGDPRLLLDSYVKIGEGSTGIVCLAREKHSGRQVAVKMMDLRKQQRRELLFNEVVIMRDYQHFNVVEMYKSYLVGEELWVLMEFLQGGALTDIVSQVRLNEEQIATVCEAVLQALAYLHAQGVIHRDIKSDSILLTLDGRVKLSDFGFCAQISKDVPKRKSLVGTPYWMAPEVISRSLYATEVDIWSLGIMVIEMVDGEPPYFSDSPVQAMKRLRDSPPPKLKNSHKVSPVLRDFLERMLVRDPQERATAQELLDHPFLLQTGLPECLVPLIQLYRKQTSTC

[21] = Antiproliferative activity against human ANGM-CSS cells assessed as inhibition of cell growth after 144 hrs by WST1 assay; assay type: functional
[22] = target: Mitogen-activated protein kinase 1 (Homo sapiens) (UniProt P28482); test: Inhibition of ERK2 (unknown origin) at 1 uM by selectscreen kinase profiling assay in presence of ATP
[23] = Induction of apoptosis in human ANGM-CSS cells assessed as early apoptotic cells at 1 uM after 7 days by annexin V-FITC/7-AAD dual staining based cell analysis (reference value: 2.12%); assay type: functional
[24] = target: T2, 3-phosphoinositide-dependent protein kinase 1 (Homo sapiens, UniProt O15530); test: Inhibition of PDK1 (unknown origin) in presence of 25 uM ATP incubated for 1 hr by Z'Lyte assay
T2 sequence (O15530 whole entry): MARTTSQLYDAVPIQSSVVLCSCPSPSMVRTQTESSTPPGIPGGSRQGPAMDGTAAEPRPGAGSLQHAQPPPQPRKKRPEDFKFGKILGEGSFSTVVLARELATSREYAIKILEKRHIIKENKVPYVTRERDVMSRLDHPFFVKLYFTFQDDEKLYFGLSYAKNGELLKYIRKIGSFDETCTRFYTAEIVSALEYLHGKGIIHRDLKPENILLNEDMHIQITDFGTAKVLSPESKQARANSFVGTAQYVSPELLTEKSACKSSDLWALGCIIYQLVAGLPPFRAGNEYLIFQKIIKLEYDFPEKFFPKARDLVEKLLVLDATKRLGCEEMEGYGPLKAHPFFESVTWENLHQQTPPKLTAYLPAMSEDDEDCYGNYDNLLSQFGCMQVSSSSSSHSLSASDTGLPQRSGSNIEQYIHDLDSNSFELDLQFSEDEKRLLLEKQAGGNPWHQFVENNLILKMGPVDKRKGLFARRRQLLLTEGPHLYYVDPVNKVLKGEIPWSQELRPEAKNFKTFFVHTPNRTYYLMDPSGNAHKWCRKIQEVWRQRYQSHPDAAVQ

[25] = species on record: Homo sapiens; test: Inhibition of PKCbeta I (unknown origin) at 1 uM by selectscreen kinase profiling assay in presence of ATP
[26] = Cell cycle arrest in human ANGM-CSS cells assessed as accumulation at S phase at 1 uM after 7 days by based fluorescent reagent based cell analysis (reference value: 4.1%); assay type: functional
[27] = Cell cycle arrest in human GSC derived from ANGM-CSS cells assessed as accumulation at G0/G1 phase at 1 uM after 7 days by based fluorescent reagent based cell analysis (reference value: 71.4%); assay type: functional
[28] = target: Tyrosine-protein kinase ITK/TSK (Homo sapiens) (UniProt Q08881); test: Inhibition of ITK (unknown origin) at 1 uM by selectscreen kinase profiling assay in presence of ATP
Chain of Tyrosine-protein kinase ITK/TSK (Homo sapiens) (Q08881 whole entry): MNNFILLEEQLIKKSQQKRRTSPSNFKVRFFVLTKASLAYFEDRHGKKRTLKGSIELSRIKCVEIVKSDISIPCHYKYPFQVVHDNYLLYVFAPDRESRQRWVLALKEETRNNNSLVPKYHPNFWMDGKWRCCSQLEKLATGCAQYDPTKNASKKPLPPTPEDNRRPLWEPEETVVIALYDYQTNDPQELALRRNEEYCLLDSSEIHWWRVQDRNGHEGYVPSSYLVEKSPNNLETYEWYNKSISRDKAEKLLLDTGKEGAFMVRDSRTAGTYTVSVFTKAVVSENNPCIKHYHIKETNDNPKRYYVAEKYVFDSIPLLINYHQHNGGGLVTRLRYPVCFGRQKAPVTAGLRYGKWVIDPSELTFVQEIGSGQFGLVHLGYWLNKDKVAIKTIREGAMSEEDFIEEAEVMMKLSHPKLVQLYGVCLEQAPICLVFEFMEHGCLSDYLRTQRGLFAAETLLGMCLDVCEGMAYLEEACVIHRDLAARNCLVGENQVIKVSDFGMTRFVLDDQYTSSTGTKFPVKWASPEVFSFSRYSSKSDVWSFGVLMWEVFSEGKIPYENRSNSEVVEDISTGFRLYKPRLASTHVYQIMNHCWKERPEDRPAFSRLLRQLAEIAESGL

[29] = tested on: ANGM-CSS; test: Induction of human GSC differentiation derived from ANGM-CSS cells assessed as down regulation of nestin mRNA expression at 1 uM after 7 days by RT-PCR analysis; assay type: functional, cell-based
[30] = Antiproliferative activity against human U118MG cells assessed as inhibition of cell growth after 144 hrs by WST1 assay; assay type: functional; conditions: U-118-MG

Structure (SMILES): COc1cc2c(cc1OC)CN(CC(=O)Nc1ccc3c(c1)/C(=C/c1cnc[nH]1)C(=O)N3)CC2
- inhibition [1]: 9%
- inhibition [2]: 8%
- inhibition [3]: 37%
- inhibition [4]: 11%
- IC50 [5]: 272 nM
- inhibition [6]: 70%
- inhibition [7]: 4%
- Activity [8]: 1%
- inhibition [9]: 27%
- inhibition [10]: tde
- inhibition [11]: -8%
- inhibition [12]: 37%
- Activity [13]: 81.32%
- inhibition [14]: 5%
- inhibition [15]: 59%
- growth inhibition (GI) [16]: Dose-dependent effect
- Activity [17]: Active
- IC50 [18]: 274 nM
- Activity [19]: Active
- inhibition [20]: 2%
- GI50 [21]: 3980 nM
- inhibition [22]: 26%
- Activity [23]: 6.77%
- IC50 [24]: 998 nM
- inhibition [25]: -6%
- Activity [26]: 4.1%
- Activity [27]: 69%
- inhibition [28]: -2%
- Activity [29]: Active
- GI50 [30]: 16200 nM
